Source: ChEMBL document CHEMBL1130296, “Benzo[c]quinoliziniums: A new family of inhibitors for protein kinase CK II” (Bioorg Med Chem Lett, 1997)

Legend:
Casein kinase II [1] = target: T1, Casein kinase II (Homo sapiens, UniProt P19784+P67870+P68400); test: Inhibitory concentration was determined towards Casein kinase 2; format: protein-complex assay
[2] = target: Cyclin-dependent kinase 1 (Homo sapiens, UniProt P06493); test: Inhibition of cyclin-dependent kinase 1 cdc2
Protein kinase C (PKC) = test: Inhibition of protein kinase C; format: protein assay
Casein kinase II [3] = target: T1, Casein kinase II; test: Inhibition of casein kinase II; format: protein-complex assay
[4] = target: Proto-oncogene tyrosine-protein kinase Src (Homo sapiens, UniProt P12931); test: Inhibition of p60 c-Src tyrosine kinase (No inhibition)
Proto-oncogene tyrosine-protein kinase Src, sequence (P12931 2-536 limits assumed): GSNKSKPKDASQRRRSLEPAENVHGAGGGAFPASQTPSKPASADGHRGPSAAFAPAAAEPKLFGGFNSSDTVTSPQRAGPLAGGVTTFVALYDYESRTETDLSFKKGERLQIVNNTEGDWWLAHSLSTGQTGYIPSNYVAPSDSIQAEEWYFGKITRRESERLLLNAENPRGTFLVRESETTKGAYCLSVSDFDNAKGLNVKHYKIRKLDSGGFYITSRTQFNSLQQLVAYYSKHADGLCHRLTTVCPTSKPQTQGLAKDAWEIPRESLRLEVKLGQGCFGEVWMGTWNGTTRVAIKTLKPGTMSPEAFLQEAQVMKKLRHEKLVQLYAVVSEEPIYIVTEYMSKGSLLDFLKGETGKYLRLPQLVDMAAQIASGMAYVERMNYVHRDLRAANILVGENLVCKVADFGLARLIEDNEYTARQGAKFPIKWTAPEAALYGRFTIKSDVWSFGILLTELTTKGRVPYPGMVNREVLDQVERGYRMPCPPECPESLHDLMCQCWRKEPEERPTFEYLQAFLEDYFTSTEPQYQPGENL

T1 sequence (P67870 whole entry): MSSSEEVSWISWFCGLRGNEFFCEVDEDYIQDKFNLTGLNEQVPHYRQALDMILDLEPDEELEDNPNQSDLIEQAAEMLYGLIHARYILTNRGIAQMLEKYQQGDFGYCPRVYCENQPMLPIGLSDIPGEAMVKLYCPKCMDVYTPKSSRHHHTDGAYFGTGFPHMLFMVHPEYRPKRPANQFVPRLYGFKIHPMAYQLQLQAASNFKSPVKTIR
T1 sequence (P68400 whole entry): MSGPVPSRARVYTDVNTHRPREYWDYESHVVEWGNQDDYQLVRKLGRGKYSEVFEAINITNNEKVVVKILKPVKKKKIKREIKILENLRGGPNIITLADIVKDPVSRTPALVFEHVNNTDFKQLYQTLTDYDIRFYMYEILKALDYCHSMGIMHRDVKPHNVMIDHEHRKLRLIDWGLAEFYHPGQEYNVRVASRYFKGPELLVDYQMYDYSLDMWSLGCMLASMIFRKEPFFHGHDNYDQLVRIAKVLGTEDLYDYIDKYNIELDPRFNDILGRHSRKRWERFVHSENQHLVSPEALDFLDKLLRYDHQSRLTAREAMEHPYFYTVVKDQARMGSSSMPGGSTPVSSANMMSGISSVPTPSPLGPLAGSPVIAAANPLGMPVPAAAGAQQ
T1 sequence (P19784 whole entry): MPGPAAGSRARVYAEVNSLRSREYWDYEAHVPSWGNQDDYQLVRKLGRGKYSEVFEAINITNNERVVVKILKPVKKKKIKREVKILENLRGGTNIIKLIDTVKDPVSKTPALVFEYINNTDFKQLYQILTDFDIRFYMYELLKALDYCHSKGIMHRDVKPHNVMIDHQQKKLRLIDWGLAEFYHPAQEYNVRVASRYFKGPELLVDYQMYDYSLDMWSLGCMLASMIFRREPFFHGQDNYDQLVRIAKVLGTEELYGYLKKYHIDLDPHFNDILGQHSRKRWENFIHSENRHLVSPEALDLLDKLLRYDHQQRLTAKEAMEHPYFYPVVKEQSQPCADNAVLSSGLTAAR
Cyclin-dependent kinase 1, sequence (P06493 whole entry): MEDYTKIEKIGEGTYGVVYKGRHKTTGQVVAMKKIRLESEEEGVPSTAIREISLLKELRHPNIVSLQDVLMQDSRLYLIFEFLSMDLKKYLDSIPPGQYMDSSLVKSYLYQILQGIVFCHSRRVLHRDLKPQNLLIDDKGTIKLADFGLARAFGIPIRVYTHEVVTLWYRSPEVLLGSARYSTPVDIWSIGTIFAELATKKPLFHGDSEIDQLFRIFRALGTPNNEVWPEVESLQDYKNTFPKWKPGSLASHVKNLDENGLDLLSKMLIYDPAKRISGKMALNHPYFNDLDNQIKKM

Structure (SMILES) | IC50 (Casein kinase II [1]) [µM] | also measured
Oc1cc2cccc[n+]2c2ccccc12 [listing 1 of 2 here] | 43 | 
O/C(=C/c1ccccn1)c1ccc(Cl)cc1Cl | 900 | 
O/C(=C/c1ccccn1)c1cccc(Cl)c1Cl | 130 | 
Oc1cc2cccc[n+]2c2ccc(Cl)cc12 | 210 | 
O/C(=C/c1ccccn1)c1ccccc1 | 2500 | 
Nc1cc2cccc[n+]2c2ccccc12 [listing 1 of 2 here] | 110 | 
Nc1cc2cccc[n+]2c2ccccc12 [listing 2 of 2 here] | 100 | 
Nc1cc2cccc[n+]2c2cc(Cl)ccc12 | 24 | 
Oc1cc2cccc[n+]2c2c(Cl)cccc12.[Cl-] |  | IC50 [2]: > 1000 µM; IC50 (Protein kinase C (PKC)): 38 µM; IC50 (Casein kinase II [3]): 5 µM; IC50 [4]: Not Active
Nc1cc2cccc[n+]2c2c(Cl)cccc12 | 50 | 
O/C(=C/c1ccccn1)c1ccccc1Cl | 1200 | 
Nc1cc2cccc[n+]2c2cccc(Cl)c12 | 84 | 
Oc1cc2cccc[n+]2c2cccc(Cl)c12 | 18 | 
Oc1cc2cccc[n+]2c2ccccc12 [listing 2 of 2 here] | 50 | 
O/C(=C/c1ccccn1)c1c(Cl)cccc1Cl | 580 | 
O/C(=C/c1ccccn1)c1ccccc1Br | 820 | 
Oc1cc2cccc[n+]2c2cc(Cl)ccc12 | 39 | 
